From US20060167068A1, “Method of treating self-injurious behavior with glutamate modulating agents” (priority 2005, published 2006)

Assay: Case reports: glutamate modulating agent added to medication of patients with borderline personality disorder and self-injurious behavior
Format: in vivo, human
Excerpt: We describe two patients with borderline personality disorder and prominent cutting behaviors refractory to psychopharmacologic interventions.
Patient 1 was a person with a history of post-traumatic stress disorder and borderline personality disorder. […] They were previously treated with intensive psychotherapy, cognitive behavioral therapy, and pharmacotherapy. Medication management included treatment trials, either alone or in combination, of the following medications: CELEXA (citraloprom HBr), PROZAC (fluoxetine HCl), REMERON (mirtazapine), ZYPREXA (olanzapine), KLONOPIN (clonazepam), LAMICTAL (lamotrigine), RISPERDAL (risperidone), Abilify (aripiprazole), EFFEXOR (venlafaxine HCl), XANAX (alprazolam), WELLBUTRIN (bubroprion HCl), and ATIVAN (lorazepam). Medications provided little relief and their cutting behaviors continued on a daily to weekly basis. Riluzole, a glutamate modulating agent, was added to their medication regimen which consisted of LEXAPRO (escitalopram) 20 mg a day and KLONOPIN 1 mg at bedtime. Riluzole was dosed at 50 mg twice a day. […] This attenuation in their self-injurious behaviors occurred between week 2 and 3 of treatment with riluzole.
Despite the beneficial effects of riluzole with regard to the cutting/self-injurious behaviors (as well as cravings to cut), Patient 1 requested to stop the riluzole secondary to the sedation. Within 1 week of stopping the riluzole, their desire and cravings to cut returned. They were then treated with N-Acetyl Cysteine (NAC), another agent thought to modulate glutamatergic function.
Patient 2 was a person with a long history of borderline personality disorder, major depression, obsessive-compulsive disorder and generalized anxiety disorder. […] These self-injurious behaviors and the cravings to cut worsened under times of stress. They were previously treated with intensive psychotherapy, cognitive behavioral therapy, and pharmacotherapy. Medication management included treatment trials, either alone or in combination, of the following medications: EFFEXOR, ZOLOFT (sertaline HCl), TOPAMAX (topirimate), ATIVAN (lorazepam), trazodone, ABILIFY AND NEURONTIN (gabapentin). Riluzole, a glutamate modulating agent, was added to their medication regimen which consisted of ZOLOFT 200 mg each day, RISPERDAL (risperidone) 2 mg at bedtime, KLONOPIN 1 mg three times per day and PROVIGIL (modafinil) 200 mg a day. Riluzole was dosed at 50 mg twice a day. […] Similar to the first case, the cessation in self-injurious behaviors occurred between week 2 and 3 of treatment with riluzole.

[1] = Patient 1, riluzole 50 mg twice a day

Row | Compound | time of treatment until desire to cut remitted (Patient 1, NAC after stopping riluzole) [weeks] | period without any self-injurious behaviors (Patient 1, on NAC) | self-injurious cravings (self-report) (Patient 1, on NAC, desire to cut not completely eradicated as while on riluzole) | time after stopping treatment until desire and cravings to cut returned (Patient 1, after stopping riluzole) [week] | adverse effect while on treatment [1] | time on treatment without a single episode or desire to harm themself [1] | cravings to cut / self-injurious behaviors (patient report) (Patient 1, riluzole 50 mg twice a day added to LEXAPRO 20 mg a day and KLONOPIN 1 mg at bedtime) | period without any self-injurious behaviors (Patient 2, riluzole 50 mg twice a day) | desire to engage in self-injurious behaviors (patient report) (Patient 2, riluzole 50 mg twice a day added to ZOLOFT 200 mg, RISPERDAL 2 mg, KLONOPIN 1 mg three times per day, PROVIGIL 200 mg) | self-injurious behavior (both cases (two patients with borderline personality disorder and cutting behaviors refractory to psychopharmacologic interventions), after initiating riluzole)
1 | CC(=O)N[C@@H](CS)C(=O)O [NAC, N-Acetyl Cysteine] | ≤ 2 | over three months | significantly attenuated | – | – | – | – | – | – | –
2 | Nc1nc2ccc(OC(F)(F)F)cc2s1 [riluzole, Riluzole] | – | – | – | ≤ 1 | significant sedation | approximately eight weeks | complete cessation of cravings to cut | over six months | complete cessation | significantly decreased
